According to US9364555B2, “Pederin and psymberin agents” (priority 2011, dated 2016):
Read-outs that look alike come from different tables or passages of the source.

Key:
[1] = system: HCT116 colon cancer cells; experiment: cell viability study, MTS assay with a three day incubation period; format: cell-based
Procedure: The potency of the above-described compounds was measured in cell viability studies using HCT116 colon cancer cells with an MTS assay with a three day incubation period.
The second generation analogs were evaluated for their ability to inhibit HCT116 cell growth through the same protocol that was used to evaluate the initial set of compounds.

[2] = system: p53 knockout variant of the HCT116 cell line; experiment: test against p53 knockout variant of the HCT116 cell line; format: cell-based
Description: The identity of the alkoxy group in the acyl aminal subunit appears to exert little influence over the biological activity, but the presence of the alkoxy group enhances potency by at least one order of magnitude (entries 1-4 vs. entry 5). […] This has also been observed in psymberin analogs that lack a substituent at that position (Huang et al., Org. Lett. 2009, 11, 867). […] The approximately one order of magnitude potency reduction of the des-methylene analog (entry 7), though consistent with results from the Nakata group, was somewhat surprising based on the minimal structural perturbation that this change effects on the hydrogen bond donors and acceptors in the molecule (Fukui et al., Bioorg. Med. Chem. Lett. 1997, 7, 2081).

[3] = system: HCT116 colon cancer cells; details: literature value, read-out: GI50 value in the literature for this cell line; cited from earlier work
[4] = HCT116 cells, MTS assay, three day incubation, Table 1, natural products and analogs
[5] = Homo sapiens, HCT-116, HCT116 cell growth, same protocol as Table 1, Table 2, second generation analogs
[6] = HCT116 cell growth, same protocol as Table 1, Table 2, second generation analogs

Work on pedestatin [Compound 46] yielded a GI50 [1, 4] of 0.046 ± 0.03 nM.

In the case of `C=C1C[C@](OC)([C@H](O)C(=O)N/C=C2/C[C@@H](O)C(C)(C)[C@@H](C[C@@H](COC)OC)O2)O[C@H](C)[C@@H]1C` [Compound 37, pederin enamide], the GI50 ([1]; Homo sapiens, HCT-116, 72 h, HCT116 cells, MTS assay, three day incubation, Table 1, natural products and analogs) is reported as 27 ± 0.88 nM and the “activity against p53 knockout variant of HCT116 compared with HCT116” value (“activity … compared with HCT116” for short) [2] is reported as “essentially identical activity”.

For “10-dimthoxybenzyloxy pederin [Compound 36d]”, the GI50 [1, 4] was 0.32 ± 0.09 nM.

For 10-desmethoxy pederin [Compound 36e], the GI50 [1, 4] was 7.7 ± 0.24 nM.

For “10-trifluoroethoxy pederin [Compound 36c]”, the GI50 [1, 4] was 0.55 ± 0.024 nM.

With 13-OTBS pederin the GI50 [1, 4] was 3.1 ± 0.1 nM.

`COC[C@H](C[C@H]1O[C@H]([C@H](C)NC(=O)[C@@H](O)[C@@]2(OC)CC[C@@H](C)[C@@H](C)O2)C[C@@H](OC)C1(C)C)OC` [Compound 51, 4-desmethylene-10-(S)-methyl 13-O-methylpederin] showed a GI50 [1, 5] of 42 ± 5 nM.

For `C=C1C[C@](OC)([C@H](O)C(=O)N[C@@H](OC)[C@@H]2C[C@@H](O)C(C)(C)[C@@H](C[C@@H](COC)OC)O2)O[C@H](C)[C@@H]1C` [Compound 1, pederin], the GI50 [1, 4] was 0.6 ± 0.1 nM and the “activity … compared with HCT116” value [2] was “essentially identical activity”.

Work on “4-desmethylene-10-desmethoxy 13-O-methylpederin [Compound 49]” yielded a GI50 [1, 6] of 79 ± 8 nM.

For `C=C(C)CC(OC)[C@H](O)C(=O)N[C@@H](OC)[C@@H]1C[C@@H](O)C(C)(C)[C@@H](C[C@H](O)[C@@H](C)[C@H]2Cc3c(C)c(O)cc(O)c3C(=O)O2)O1` (stereo partly drawn) [Compound 2, psymberin], the GI50 [1, 4] is given as 0.052 ± 0.02 nM and the GI50 [3] is given as 0.16 nM.

For C4-desmethylene pederin [Compound 40], the GI50 [1, 4] was 6.5 ± 0.8 nM and the “activity … compared with HCT116” value [2] was “essentially identical activity”.

With `C=C1CC(OC)(C(O)C(=O)NC(OCC)C2CC(O)C(C)(C)C(CC(COC)OC)O2)OC(C)C1C` (stereo not drawn) [Compound 36b, 10-ethoxy pederin] the GI50 [1, 4] was 0.34 ± 0.08 nM.

In the case of `C=C1C[C@](OC)([C@H](O)C(=O)N[C@@H](OC)[C@@H]2C[C@@H](OC)C(C)(C)[C@@H](C[C@@H](COC)OC)O2)O[C@H](C)[C@@H]1C` [Compound 41, 13-O-methyl pederin], the GI50 [1, 4] is reported as 0.084 ± 0.01 nM and the “activity … compared with HCT116” value [2] is reported as “essentially identical activity”.

Work on 10-desmethoxy pedestatin [Compound 48] yielded a GI50 [1, 6] of 0.068 ± 0.02 nM.

With `COC[C@H](C[C@H]1O[C@H]([C@@H](C)NC(=O)[C@@H](O)[C@@]2(OC)CC[C@@H](C)[C@@H](C)O2)C[C@@H](OC)C1(C)C)OC` [Compound 52, 4-desmethylene-10-(R)-methyl 13-O-methylpederin] the GI50 [1, 5] was > 9000 nM.

Work on 8-desmethoxy psymberin [Compound 47] yielded a GI50 [1, 6] of 0.83 ± 0.1 nM.
